According to publication PMC10072326, “Promising anticancer agents based on 8-hydroxyquinoline hydrazone copper(II) complexes” (Frontiers in Chemistry, 2023):

Columns and labels:
A-375 cells [1] = assay: ROS activation via dihydroethidium staining, flow cytometry; assay type: cell-based; conditions: 48 h
Description: Since reactive oxygen species appeared to be involved in the nicking activity of the complexes (Supplementary Figure S24), we investigated whether there was an increase in ROS formation in cells upon drug treatment. Dihydroethidium (DHE) is a reduced form of ethidium, after oxidation with superoxide (ROS), it is converted into 2-hydroxy ethidium, which is a chemical that emits red fluorescence and intercalates DNA. […] Similar results were obtained using A-549 cells, but with much milder induction of ROS except for 8, which remained high (Supplementary Figure S26).
(§1) 5 × 10^4 number of A-375 and A-549 cells were seeded on 12-well plates, and the next day cells were treated with either copper complexes (calculated IC70 values) or cisplatin (15 μM). Following 48 h of treatment, cells were trypsinized, centrifuged and resuspended in PBS solution supplemented with 1% fetal bovine serum (FBS) (10^6 cells/mL).
Oxidative stress levels were assessed by Muse Oxidative Stress Kit (Luminex, MCH100111) using the same protocol as previously described (21).

A-375 cells [2] = assay: γH2AX staining for DNA double-strand breaks; assay type: cell-based
Method: Indeed, we examined whether DNA nicks induced by the complexes on pure plasmid DNA would reflect in cell culture as increased DNA break formation. To test this, A-375 cells were stained using γH2AX, which is a common marker for DSBs (Figure 7B). […] For complex 1 the opposite effect was observed and despite its lower ability to induce ROS formation, the DSB were the highest among the group.
as §1
The Muse ɣH2A.X Activation Dual Detection Kit (Luminex, MCH200101) protocols were followed with minor changes. 1 × 10^5 cells were mixed with ice-cold 1X Fixation Buffer at the same volume for 5 min. Cells were centrifuged (600 g, 5 min), and the pellet was suspended with 100 μL of ice-cold 1X Permeabilization Buffer (10 min, on ice), and centrifuged again. The cell pellet was resuspended with 50 μL of antibody mixture of (20X) Anti-phospho-Histone H2A.X (Ser139), Alexa Fluor 555 and (20X) Anti-H2A.X, PECy5 antibodies. Following 30 min of antibody staining, cells were centrifuged and resuspended with 1X Assay Buffer. DNA breaks were analysed with Muse Cell Analyzer (Merck Millipore).

A-375 cells [3] = assay: Apoptosis by Annexin V/7-AAD and Caspase 3/7 flow cytometry; assay type: cell-based; conditions: 48 h, Annexin-V and caspase 3/7
Method: To determine the mode of cell death, A-375 cells were incubated with the Cu complexes and cisplatin for 48 h and, induction of apoptosis was evaluated using both Annexin-V staining and activation of caspase 3/7 in response to drug treatment. While Annexin-V staining relies on the loss of plasma membrane asymmetry, caspases 3 and 7 are critical proteases, which are responsible for the cleavage of many cellular proteins. […] Similar results were obtained in A-549 cells (Supplementary Figure S28).
as §1
Annexin V & Dead Cell Kit (Luminex, MCH100105) protocols were followed for Annexin V activation. Briefly, 1 × 10^5 cells were stained with Annexin V and 7-AAD solution in a 1:1 ratio and incubated at room temperature for 20 min. The apoptotic cell population was evaluated with Muse Cell Analyzer (Merck Millipore).
Caspase-3/7 Kit (Luminex, MCH100108) protocols were followed for Caspase 3/7 staining. 2 × 10^5 cells were stained with 5 μL of Caspase 3/7 antibody (1:8 dilution in PBS) and incubated at room temperature for 30 min. Then, the cells were stained with 100 μL of 7-AAD antibody mixture (1:75 dilution with 1 × Assay Buffer) for 5 min. Caspase 3/7 and 7-AAD positivity were assessed with Muse Cell Analyzer (Merck Millipore).

A-375 cells [4] = assay: Cytotoxicity with ROS scavenger NAC (SRB); assay type: cell-based; conditions: 10 mM NAC pre-treatment 2 h, co-treatment 72 h
Description: (§2) Additionally, to assess whether the ROS induction contributed to the cytotoxicity triggered by these complexes, we used a ROS scavenger, N-acetyl-cysteine (NAC), in combination with 1, 3, 5 or 8. […] Indeed, it is also possible that the cytotoxicity induced by 5 is not by ROS, despite the induction observed in Figure 7A.
(§3) Figure S27- Protective mechanism of NAC against Cu(II) complexes. Addition of NAC can protect cells from the cytotoxic effects of the Cu(II) complexes A-375 (A) and A-549 (B) cells were pre-treated with 10 mM of ROS scavenger N-acetylcysteine (NAC) for 2 h, then co-treated with freshly prepared Cu(II) complexes (1, 3, 5 and 8) for 72 h. Cell viability was measured via SRB assay (2 biological replicates, each done in duplicate). The error bars represent standard error of the mean. Student t-test was used for statistical analysis, *p<0.05, **p<0.01

A-549 cells = assay: Cytotoxicity with ROS scavenger NAC (SRB); assay type: cell-based; conditions: 10 mM NAC pre-treatment 2 h, co-treatment 72 h
Description: as §2, §3

DNA-EB system = assay: DNA-ethidium bromide fluorescence competition; assay type: binding
Method: The fluorescence emission experiments were carried out in a Perkin Elmer LS 55 spectrofluorimeter. A pulsed Xenon lamp (50 Hz) provided the excitation light. A thermostated water bath recycler linked to the cell holder provided temperature control within ± 0.1 °C. The measurements were done in a 1000 µL quartz cell with an optical path length of 1.0 cm with the complexes solution added directly to the DNA-EB (ethidium bromide) solution in the cell. A glass syringe connected to a Mitutoyo micrometric screw added accurate volumes each time (one complete turn of the screw is 8.2 µL, 1/50 of a turn is the minimum possible addition).
Moreover, this complex reduces the emission of the EB-DNA system to ca. 40 % of its initial intensity with an interaction constant of (1.18 ± 0.03) × 10^4 M^−1 (Fig. S22, constant calculated with HypSpec2014 (28)).
Considering the results of the melting temperature assay, the DNA-EB fluorescence quenching was also used to test complex 7. […] The accessible fraction fa was determined as 0.26 and the interaction constant as (1.44 ± 0.02) ×10^5 M^−1 (HypSpec2014 (28)). As EB has a second mode of interaction with DNA due to electrostatic interactions on the external part of the biomolecule backbone (30), it is possible that the complexes are only being able to reach for this fraction. […]

S. aureus MRSA 272123 = assay: MIC determination; assay type: cell-based, Staphylococcus aureus; conditions: 18 h

SMILES | ROS positivity (A-375 cells [1]) [%] | DSB induction (γH2AX), in words (A-375 cells [2]) | DNA breaks (γH2AX) (A-375 cells [2]; 48 h) [%] | induction of apoptosis, in words (A-375 cells [3]) | effect of NAC on cytotoxicity (A-375 cells [4]) | effect of NAC on cytotoxicity (A-549 cells) | interaction constant (DNA-EB system; DNA-EB fluorescence quenching, HypSpec2014) | emission of the EB-DNA system, % of its initial intensity (DNA-EB system; titration 0 – 51.6 µM, HEPES pH 7.4) | MIC (S. aureus MRSA 272123) [µM]
COc1ccc(C([O-])=NN=Cc2ccc3cccc([O-])c3n2)cc1.[Cu+2] [Complex 5, [Cu(L^5)]3] | ~80 | highest levels of DSB induction | ~80 | triggered apoptosis only mildly | – | – | – | – | –
[Cu+2].[O-]C(=NN=Cc1ccc2cccc([O-])c2n1)c1ccc(F)cc1 [Complex 3, [Cu(L^3)]3] | 60 | – | – | performed well | significantly reduced | significantly reduced | – | – | –
CC(=O)[O-].O=C(NN=Cc1ccc2cccc([O-])c2n1)c1ccccc1.[Cu+2] [Complex 1, [Cu(HL^1)(AcO)]] | – | highest levels of DSB induction | – | – | significantly reduced | significantly reduced | (1.18 ± 0.03) × 10^4 M^−1 | ca. 40% | 50
